# According to ChEMBL document CHEMBL5131549, “Discovery of a High Affinity Adenosine A1/A3 Receptor Antagonist with a Novel 7-Amino-pyrazolo[3,4-d]pyridazine Scaffold” (ACS Med Chem Lett, 2022):
# Legend:
# [1] = Cytotoxicity against human WI-38 cells assessed as cell viability incubated for 72 to 96 hrs by MTT assay; assay type: toxicity, cell-based
# PC-3 = assay: cells; conditions: Homo sapiens
# HCT-116 = assay: cells; conditions: Homo sapiens
SMILES,IC50 [1],IC50 (PC-3),IC50 (HCT-116)
O=C(Cc1ccccc1)Nc1nc2ccc(Cl)cc2c2nc(-c3ccco3)nn12,> 10 µM,–,–
CCNC(=O)[C@H]1O[C@@H](n2cnc3c(N)ncnc32)[C@H](O)[C@@H]1O [NECA],> 10 µM,> 10 µM,> 10 µM
